Measured values as given in ChEMBL document CHEMBL1141941, “Biaryl diamides as potent melanin concentrating hormone receptor 1 antagonists” (Bioorg Med Chem Lett, 2005).

Key:
[1] = biological target: Melanin-concentrating hormone receptor 1 (Homo sapiens, UniProt Q99705); experiment: Antagonist activity against human MCH1 receptor; assay type: functional
[2] = biological target: Melanin-concentrating hormone receptor 2 (Homo sapiens, UniProt Q969V1); experiment: Antagonist activity against human MCH2 receptor; assay type: functional
Sequence of Melanin-concentrating hormone receptor 2 (Q969V1 whole entry): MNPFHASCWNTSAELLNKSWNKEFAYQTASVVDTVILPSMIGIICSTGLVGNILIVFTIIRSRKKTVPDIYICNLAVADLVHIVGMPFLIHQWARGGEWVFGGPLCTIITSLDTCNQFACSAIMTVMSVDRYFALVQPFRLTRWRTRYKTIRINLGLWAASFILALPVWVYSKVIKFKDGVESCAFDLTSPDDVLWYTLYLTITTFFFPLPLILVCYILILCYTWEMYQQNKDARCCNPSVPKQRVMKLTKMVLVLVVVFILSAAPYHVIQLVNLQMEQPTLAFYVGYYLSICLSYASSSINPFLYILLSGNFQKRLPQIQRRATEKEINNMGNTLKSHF

Sequence of Melanin-concentrating hormone receptor 1 (Q99705 whole entry): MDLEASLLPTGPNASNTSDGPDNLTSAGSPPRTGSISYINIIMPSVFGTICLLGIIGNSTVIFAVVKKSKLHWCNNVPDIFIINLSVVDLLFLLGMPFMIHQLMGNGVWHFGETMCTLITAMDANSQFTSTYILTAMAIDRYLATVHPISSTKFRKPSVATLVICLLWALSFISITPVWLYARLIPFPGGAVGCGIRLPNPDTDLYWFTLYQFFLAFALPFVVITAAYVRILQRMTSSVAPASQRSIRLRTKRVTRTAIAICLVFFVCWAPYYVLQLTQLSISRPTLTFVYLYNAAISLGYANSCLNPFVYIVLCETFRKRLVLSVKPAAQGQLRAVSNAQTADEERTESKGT

Row | Structure (SMILES) | Ki [1] | Ki [2]
1 | C[C@@H](c1ccc(-c2cccc(C#N)c2)cc1)N(CC(=O)Nc1cc(Cl)cc(Cl)c1)C(=O)CN1CC[C@H](O)C1 | 16 nM | > 3000 nM
2 | C[C@H](c1ccc(-c2cccc(C#N)c2)cc1)N(CC(=O)Nc1cc(Cl)cc(Cl)c1)C(=O)CCN1CC[C@H](O)C1 | 23 nM | > 3000 nM
3 | N#Cc1cccc(-c2ccc(CCN(CC(=O)Nc3cc(Cl)cc(Cl)c3)C(=O)CN3CC[C@H](O)C3)cc2)c1 |  | > 3000 nM
4 | N#Cc1cccc(-c2ccc(CN(CC(=O)Nc3cc(Cl)cc(Cl)c3)C(=O)CN3CCCC3)cc2)c1 |  | > 3000 nM
5 | CC(C)(c1ccc(-c2cccc(C#N)c2)cc1)N(CC(=O)Nc1cc(Cl)cc(Cl)c1)C(=O)CN1CCCC1 | 131 nM | > 3000 nM
6 | N#Cc1cccc(-c2ccc(CN(CC(=O)Nc3cc(Cl)cc(Cl)c3)C(=O)CN3CC[C@@H](O)C3)cc2)c1 |  | > 3000 nM
7 | N#Cc1cccc(-c2ccc(CCN(CC(=O)Nc3cc(Cl)cc(Cl)c3)C(=O)CCN3CC[C@H](O)C3)cc2)c1 |  | > 3000 nM
8 | C[C@H](c1ccc(-c2cccc(C#N)c2)cc1)N(CC(=O)Nc1cc(Cl)cc(Cl)c1)C(=O)CCCN1CC[C@H](O)C1 | 76 nM | > 3000 nM
9 | N#Cc1cccc(-c2ccc(CN(CCCN3CCCC3)C(=O)Nc3ccc(F)c(Cl)c3)cc2)c1 | 48 nM | > 3000 nM
10 | N#Cc1cccc(-c2ccc(CCN(CC(=O)Nc3cc(Cl)cc(Cl)c3)C(=O)CCN3CC[C@@H](O)C3)cc2)c1 |  | > 3000 nM
11 | N#Cc1cccc(-c2ccc(CN(CCCN3CCCC3)C(=O)Nc3ccc(F)c(C(F)(F)F)c3)cc2)c1 | 70 nM | > 3000 nM
12 | N#Cc1cccc(-c2ccc(CCN(CC(=O)Nc3cc(Cl)cc(Cl)c3)C(=O)CN3CCCC3)cc2)c1 |  | > 3000 nM
13 | N#Cc1cccc(-c2ccc(CCN(CC(=O)Nc3cc(Cl)cc(Cl)c3)C(=O)CCN3CCCC3)cc2)c1 |  | > 3000 nM
14 | CC(=O)N[C@@H]1CCN(CC(=O)N(CCc2ccc(-c3cccc(C#N)c3)cc2)CC(=O)Nc2cc(Cl)cc(Cl)c2)C1 |  | > 3000 nM
15 | N#Cc1cccc(-c2ccc(CN(CCN3CCCC3)C(=O)Nc3ccc(F)c(Cl)c3)cc2)c1 | 287 nM | > 3000 nM
16 | N#Cc1cccc(-c2ccc(CN(CCCN3CCCC3)C(=O)Nc3cc(Cl)cc(Cl)c3)cc2)c1 | 48 nM | > 3000 nM
17 | C[C@H](c1ccc(-c2cccc(C#N)c2)cc1)N(CC(=O)Nc1cc(Cl)cc(Cl)c1)C(=O)CN1CC[C@H](O)C1 | 31 nM | > 3000 nM
18 | N#Cc1cccc(-c2ccc(CN(CCN3CCCC3)C(=O)Nc3ccc(F)c(C(F)(F)F)c3)cc2)c1 | 159 nM | > 3000 nM
19 | N#Cc1cccc(-c2ccc(CN(CC(=O)Nc3cc(Cl)cc(Cl)c3)C(=O)CN3CC[C@H](O)C3)cc2)c1 |  | > 3000 nM
20 | C[C@@H](c1ccc(-c2cccc(C#N)c2)cc1)N(CC(=O)Nc1cc(Cl)cc(Cl)c1)C(=O)CCN1CC[C@H](O)C1 | 18 nM | > 3000 nM
21 | N#Cc1cccc(-c2ccc(CCN(CC(=O)Nc3cc(Cl)cc(Cl)c3)C(=O)CN3CC[C@@H](O)C3)cc2)c1 |  | > 3000 nM
22 | N#Cc1cccc(-c2ccc(CN(CC(=O)Nc3cc(Cl)cc(Cl)c3)C(=O)CCN3CCCC3)cc2)c1 |  | > 3000 nM
23 | N#Cc1cccc(-c2ccc(CN(CCN3CCCC3)C(=O)Nc3cc(Cl)cc(Cl)c3)cc2)c1 | 151 nM | > 3000 nM
